*1 amine or outer side, *2 acyl side, *3 side chain or, on linkers, in order; H or OH if unused. Where a SMILES comes first, the peptide text is derived from it. Where no end group is shown, it is not given here. Side-chain parts run from the residue outwards. [ ]: non-standard residue; d: D form. The star is where a group is joined. X1 = O=C(O)CCCCCCCCCCCCCCCCCCC(=O)NCC1CCC(C(=O)*)CC1; C18 diacid = O=C(O)CCCCCCCCCCCCCCCCC(=O)*; γGlu = O=C(O)[C@H](CCC(=O)[*:2])N[*:1]; Nle = CCCC[C@H](N)C(=O)O; Aib = CC(C)(N)C(=O)O
The molecules below were run against T1, human GIP receptor (Homo sapiens, UniProt P48546) (assay: In vitro potency, CRE luciferase reporter gene assay, whole BHK cells expressing human GIP receptor). Conditions: 0.2% HSA.
T1 construct: expressed in transfected cells; host or cells: BHK cells (parent line BHKTS13), clone BHK CRE luc2P hGIPR clone #5
T1 sequence (P48546 22-466): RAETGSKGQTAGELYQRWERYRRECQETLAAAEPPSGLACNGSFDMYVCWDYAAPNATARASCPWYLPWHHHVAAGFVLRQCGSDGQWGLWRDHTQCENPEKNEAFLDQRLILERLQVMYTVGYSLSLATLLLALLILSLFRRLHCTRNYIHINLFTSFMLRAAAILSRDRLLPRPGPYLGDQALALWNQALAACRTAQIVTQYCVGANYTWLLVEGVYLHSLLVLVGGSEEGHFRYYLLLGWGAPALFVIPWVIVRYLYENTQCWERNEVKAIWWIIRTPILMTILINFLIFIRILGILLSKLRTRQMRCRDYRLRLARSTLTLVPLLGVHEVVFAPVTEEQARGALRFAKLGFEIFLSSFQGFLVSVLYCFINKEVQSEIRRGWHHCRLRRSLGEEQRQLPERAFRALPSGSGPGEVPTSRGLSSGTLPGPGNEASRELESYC
Type: cell-based
Protocol: In Vitro Potency (CRE Luciferase; Whole Cells)
The in vitro potency is the measure of human GIP, GLP-1 or glucagon receptor activation, respectively, in a whole cell assay.
In vitro potency was determined by measuring the response of the human GIP, GLP-1 or glucagon receptor in a reporter gene assay in individual cell lines. […] When the respective receptor is activated it results in the production of cAMP, which in turn results in the luciferase protein being expressed. When assay incubation is completed the luciferase substrate (luciferin) is added and the enzyme converts luciferin to oxyluciferin to produce bioluminescence. The luminescence is measured as the readout for the assay.
The cells were derived from a clone containing the CRE luciferase element and were established by further transfection with the respective receptor to obtain the current clone.
The cells were cultured at 5% CO2 in Cell Culture Medium. They were aliquoted and stored in liquid nitrogen. The cells were kept in passage and were seeded out the day before each assay.
The Assay Buffer consisted of 1% ovalbumin and 0.1% Pluronic F-68 in Assay Medium with the addition of human serum albumin at twice the indicated concentrations.
1) Cells were plated at 5000 cells/well and incubated overnight.
2) Cells were washed three times in PBS.
3) Assay Medium (50 μl aliquot) with or without serum albumin was added to each well in the assay plate.
4) Stocks of the test compounds and reference compounds were diluted to a concentration of 0.2 μM in Assay Buffer. […] 8) The cells were washed three times with PBS plus some liquid in each well. 9) A 100 μl aliquot of steadylite plus reagent was added to each well of the assay plate (reagent was light sensitive). 10) Each assay plate was covered with aluminum foil to protect it from light and shaken for 30 min at room temperature. 11) Each assay plate was read in a microtiter plate reader. Calculations and Results
The data from the microtiter plate reader was transferred to GraphPad Prism software. The software performs a non-linear regression (log(agonist) vs response).
A minimum of two replicates was measured for each sample. The reported values are averages of the replicates.
With “H-Y[Aib]EGTFISDYSIA[Nle]DKIHQQDFVK([γGlu-γGlu-γGlu-C18 diacid])WLLAQKGKENDWKHNITQ [Compound 33, N{Epsilon-24}-[(4S)-4-carboxy-4-[[(4S)-4-carboxy-4-[[(4S)-4-carboxy-4-(17-carboxyheptadecanoylamino)butanoyl]amino]butanoyl]amino]butanoyl]-[Aib2,Nle14,Lys24,Glu33]-hGIP]” the EC50 was 0.0213 nM.
`CCCC[C@H](NC(=O)[C@H](C)NC(=O)[C@@H](NC(=O)[C@H](CO)NC(=O)[C@H](Cc1ccc(O)cc1)NC(=O)[C@H](CC(=O)O)NC(=O)[C@H](CO)NC(=O)[C@@H](NC(=O)[C@H](Cc1ccccc1)NC(=O)[C@@H](NC(=O)CNC(=O)[C@H](CCC(=O)O)NC(=O)C(C)(C)NC(=O)[C@@H](N)Cc1ccc(O)cc1)[C@@H](C)O)[C@@H](C)CC)[C@@H](C)CC)C(=O)N[C@@H](CC(=O)O)C(=O)N[C@@H](C)C(=O)N[C@H](C(=O)N[C@@H](CCCNC(=N)N)C(=O)N[C@@H](CCC(N)=O)C(=O)N[C@@H](CCC(N)=O)C(=O)N[C@@H](CC(=O)O)C(=O)N[C@@H](Cc1ccccc1)C(=O)N[C@H](C(=O)N[C@@H](CCCCNC(=O)CC[C@H](NC(=O)CC[C@H](NC(=O)CC[C@H](NC(=O)C1CCC(CNC(=O)CCCCCCCCCCCCCCCCCCC(=O)O)CC1)C(=O)O)C(=O)O)C(=O)O)C(=O)N[C@@H](Cc1c[nH]c2ccccc12)C(=O)N[C@@H](CC(C)C)C(=O)N[C@@H](CC(C)C)C(=O)N[C@@H](C)C(=O)N[C@@H](CCC(N)=O)C(=O)N[C@@H](CCCCN)C(=O)NCC(=O)O)C(C)C)[C@@H](C)CC` (stereo partly drawn) [Compound 14, N{Epsilon-24}-[(4S)-4-carboxy-4-[[(4S)-4-carboxy-4-[[(4S)-4-carboxy-4-[[4-[(19-carboxynonadecanoylamino)methyl]cyclohexanecarbonyl]amino]butanoyl]amino]-butanoyl]amino]butanoyl]-[Aib2,Nle14,Ala16,Arg18,Lys24]-hGIP(1-31)] (H-Y[Aib]EGTFISDYSIA[Nle]DAIRQQDFVK([γGlu-γGlu-γGlu-X1])WLLAQKG-OH) was tested, and the EC50 was 0.266 nM.
`CCCC[C@H](NC(=O)[C@H](C)NC(=O)[C@@H](NC(=O)[C@H](CO)NC(=O)[C@H](Cc1ccc(O)cc1)NC(=O)[C@H](CC(=O)O)NC(=O)[C@H](CO)NC(=O)[C@@H](NC(=O)[C@H](Cc1ccccc1)NC(=O)[C@@H](NC(=O)CNC(=O)[C@H](CCC(=O)O)NC(=O)C(C)(C)NC(=O)[C@@H](N)Cc1ccc(O)cc1)[C@@H](C)O)[C@@H](C)CC)[C@@H](C)CC)C(=O)N[C@@H](CC(=O)O)C(=O)N[C@@H](CCCCN)C(=O)N[C@H](C(=O)N[C@@H](Cc1c[nH]cn1)C(=O)N[C@@H](CCC(N)=O)C(=O)N[C@@H](CCC(=O)O)C(=O)N[C@@H](CC(=O)O)C(=O)N[C@@H](Cc1ccccc1)C(=O)N[C@H](C(=O)N[C@@H](CCCCNC(=O)CC[C@H](NC(=O)CC[C@H](NC(=O)CC[C@H](NC(=O)CC[C@H](NC(=O)C1CCC(CNC(=O)CCCCCCCCCCCCCCCCCCC(=O)O)CC1)C(=O)O)C(=O)O)C(=O)O)C(=O)O)C(=O)N[C@@H](Cc1c[nH]c2ccccc12)C(=O)N[C@@H](CC(C)C)C(=O)N[C@@H](CC(C)C)C(=O)N[C@@H](C)C(=O)N[C@@H](CCC(N)=O)C(=O)N[C@@H](CCCCN)C(=O)NCC(=O)O)C(C)C)[C@@H](C)CC` (stereo partly drawn) [Compound 21, N{Epsilon-24}-[(4S)-4-carboxy-4-[[(4S)-4-carboxy-4-[[(4S)-4-carboxy-4-[[(4S)-4-carboxy-4-[[4-[(19-carboxynonadecanoylamino)methyl]cyclohexanecarbonyl]amino]butanoyl]-amino]butanoyl]amino]butanoyl]amino]butanoyl]-[Aib2,Nle14,Glu20,Lys24]-hGIP(1-31)] (H-Y[Aib]EGTFISDYSIA[Nle]DKIHQEDFVK([γGlu-γGlu-γGlu-γGlu-X1])WLLAQKG-OH) showed an EC50 of 0.81 nM.
`CCCC[C@H](NC(=O)[C@H](C)NC(=O)[C@@H](NC(=O)[C@H](CO)NC(=O)[C@H](Cc1ccc(O)cc1)NC(=O)[C@H](CC(=O)O)NC(=O)[C@H](CO)NC(=O)[C@@H](NC(=O)[C@H](Cc1ccccc1)NC(=O)[C@@H](NC(=O)CNC(=O)[C@H](CCC(=O)O)NC(=O)C(C)(C)NC(=O)[C@@H](N)Cc1ccc(O)cc1)[C@@H](C)O)[C@@H](C)CC)[C@@H](C)CC)C(=O)N[C@@H](CC(=O)O)C(=O)N[C@@H](CCCCN)C(=O)N[C@H](C(=O)N[C@@H](CCCNC(=N)N)C(=O)N[C@@H](CCC(N)=O)C(=O)N[C@@H](CCC(N)=O)C(=O)N[C@@H](CC(=O)O)C(=O)N[C@@H](Cc1ccccc1)C(=O)N[C@H](C(=O)N[C@@H](CCCCNC(=O)COCCOCCNC(=O)COCCOCCNC(=O)CC[C@H](NC(=O)C1CCC(CNC(=O)CCCCCCCCCCCCCCCCCCC(=O)O)CC1)C(=O)O)C(=O)N[C@@H](Cc1c[nH]c2ccccc12)C(=O)N[C@@H](CC(C)C)C(=O)N[C@@H](CC(C)C)C(=O)N[C@@H](C)C(=O)N[C@@H](CCC(N)=O)C(=O)N[C@@H](CCCCN)C(=O)NCC(=O)N[C@@H](CCCCN)C(=O)N[C@@H](CCC(=O)O)C(=O)N[C@@H](CCC(=O)O)C(=O)N[C@@H](CC(=O)O)C(=O)N[C@@H](Cc1c[nH]c2ccccc12)C(=O)N[C@@H](CCCCN)C(=O)N[C@@H](Cc1c[nH]cn1)C(=O)N[C@@H](CC(N)=O)C(=O)N[C@H](C(=O)N[C@H](C(=O)N[C@@H](CCC(N)=O)C(=O)O)[C@@H](C)O)[C@@H](C)CC)C(C)C)[C@@H](C)CC` (stereo partly drawn) [Compound 41, N{Epsilon-24}-[2-[2-[2-[[2-[2-[2-[[(4S)-4-carboxy-4-[[4-[(19-carboxynonadecanoyl-amino)methyl]cyclohexanecarbonyl]amino]butanoyl]amino]ethoxy]ethoxy]acetyl]amino]ethoxy]ethoxy]acetyl]-[Aib2,Nle14,Arg18,Lys24,Glu33,Glu34]-hGIP] gave an EC50 of 0.014 nM.
For `CCCC[C@H](NC(=O)[C@H](C)NC(=O)[C@@H](NC(=O)[C@H](CO)NC(=O)[C@H](Cc1ccc(O)cc1)NC(=O)[C@H](CC(=O)O)NC(=O)[C@H](CO)NC(=O)[C@@H](NC(=O)[C@H](Cc1ccccc1)NC(=O)[C@@H](NC(=O)CNC(=O)[C@H](CCC(=O)O)NC(=O)C(C)(C)NC(=O)[C@@H](N)Cc1ccc(O)cc1)[C@@H](C)O)[C@@H](C)CC)[C@@H](C)CC)C(=O)N[C@@H](CC(=O)O)C(=O)N[C@@H](CCCCN)C(=O)N[C@H](C(=O)N[C@@H](CCCNC(=N)N)C(=O)N[C@@H](CCC(N)=O)C(=O)N[C@@H](CCC(N)=O)C(=O)N[C@@H](CC(=O)O)C(=O)N[C@@H](Cc1ccccc1)C(=O)N[C@H](C(=O)N[C@@H](CCCCNC(=O)CC[C@H](NC(=O)CC[C@H](NC(=O)CC[C@H](NC(=O)C1CCC(CNC(=O)CCCCCCCCCCCCCCCCCCC(=O)O)CC1)C(=O)O)C(=O)O)C(=O)O)C(=O)N[C@@H](Cc1c[nH]c2ccccc12)C(=O)N[C@@H](CC(C)C)C(=O)N[C@@H](CC(C)C)C(=O)N[C@@H](C)C(=O)N[C@@H](CCC(N)=O)C(=O)N[C@@H](CCCCN)C(=O)NCC(=O)N[C@@H](CCCCN)C(=O)N[C@@H](CCC(=O)O)C(=O)N[C@@H](CCC(=O)O)C(=O)N[C@@H](CC(=O)O)C(=O)N[C@@H](Cc1c[nH]c2ccccc12)C(=O)N[C@@H](CCCCN)C(=O)N[C@@H](Cc1c[nH]cn1)C(=O)N[C@@H](CC(N)=O)C(=O)N[C@H](C(=O)N[C@H](C(=O)N[C@@H](CCC(N)=O)C(=O)O)[C@@H](C)O)[C@@H](C)CC)C(C)C)[C@@H](C)CC` (stereo partly drawn) [Compound 42, N{Epsilon-24}-[(4S)-4-carboxy-4-[[(4S)-4-carboxy-4-[[(4S)-4-carboxy-4-[[4-[(19-carboxynonadecanoylamino)methyl]cyclohexanecarbonyl]amino]butanoyl]amino]butanoyl]amino]butanoyl]-[Aib2,Nle14,Arg18,Lys24,Glu33,Glu34]-hGIP], the EC50 was 0.022 nM.

Source: US11633459B2, “GIP derivatives and uses thereof” (priority 2018, dated 2023)
